The source of these data is patent US20260042754A1, “Substituted Bicyclic Heteroaryl Sulfonamide Derivatives for the Treatment of Cancer” (NODUS ONCOLOGY LIMITED, priority 2022, published 2026).

Common to all, as to type: cell-based
Experiment [1] concerns RMUG-S mucinous cystadenocarcinoma ovarian cancer cell line. Kind of experiment: Cell proliferation assay (CellTiter-Glo), RMUG-S, Examples 1-11. The note with it: Examples 1-11: 96-well, 5000 cells per well, 120 hours; highest concentration tested 9000 nM; read-out: RMUG-S GI50 (high PARG dependency). Here is the method:
(§1) For Examples 1-11, RMUG-S mucinous cystadenocarcinoma (JCRB, #IF050320) and TOV-112D endometrioid adenocarcinoma (ATCC, #CRL-11731) ovarian cancer cell lines were grown in DMEM/F-12 with glutamine (BioConcept, #1-26F09-I) and RPMI with glutamine (BioConcept, #1-41F03-1), respectively, and both media containing 10% FBS (Sigma-Aldrich, #F9665) and supplemented with 1% Penicillin-Streptomycin (BioConcept, #4-01F00-H) using standard cell culture techniques. RMUG-S and TOV-112D ovarian cancer cell lines were selected as highly PARG dependent and having low PARG dependency, respectively, based on their publically available PARG shRNA (short hairpin ribonucleic acid) dropout profiles in the Cancer Dependency Map (DepMap) data portal (Broad Institute DepMap Project; Cheung H W et al, Proceedings of the National Academy of Sciences 2011; Cowley G S et al, Scientific Data 2014; McDonald E R et al, Cell 2017). PARG dependency of these cell lines was independently verified and confirmed by genetic and pharmacological means using shRNA-mediated PARG depletion, and the previously reported cell-permeable quinazolinedione PARG inhibitor tool compound PDD00017273 (Pillay N et al, Cancer Cell 2019). Thus, growth inhibition of the RMUG-S cell line serves as a functional on-target inhibition readout, while observing potent growth inhibition of TOV-112D is indicative of compound off-target activity. Cells were seeded in 96-well plates with clear bottom (Huberlab, #7.655 090) at a seeding density of 5000 cells per well in 100 μL of medium, and the plates were incubated overnight at 37° C. with 5% CO2 prior to treatment with compounds. Experimental compounds were prepared in DMSO at a concentration of 10 mM. Compounds were distributed at the desired final concentrations using the Tecan D300e Digital Dispenser (TECAN) and normalized to the highest DMSO volume. The plates were incubated for 120 hours and cell numbers were then measured using CellTiter-Glo® (Promega, #G9241), essentially as recommended by the manufacturer. Briefly, for the CellTiter-Glo® proliferation readout, 50 μL of the reconstituted CellTiter-Glo® 2.0 Reagent were added to 100 μL of medium containing cells. The plates were incubated at room temperature for 10 minutes to stabilize the luminescent signal, and luminescence intensity signals were then measured with a Synergy 4™ microplate reader (BioTek Instruments). Relative proliferation values were calculated by normalizing the raw data using DMSO-treated cells (100% proliferation) and the signals obtained from cells that were evaluated at the time of compound addition (0% proliferation). The concentration-response data were fitted to a sigmoidal 4-parameter logistic model with the maximum constrained to 100%. GI50 values were calculated from the curves as the compound concentrations reducing proliferation to 50%.
(In general: In ATP-based viability assays light output follows the ATP content of the culture.)

Experiment [2] has as its system TOV-112D endometrioid adenocarcinoma ovarian cancer cell line. As to the kind of experiment: Cell proliferation assay (CellTiter-Glo), TOV-112D. The note with it: 96-well, 5000 cells per well, 120 hours, highest concentration tested 9000 nM, off-target readout, read-out: TOV-112D GI50 (low PARG dependency). The method, then:
as §1

The target in experiment [3] is human PARG (PARG-NanoLuc fusion in HEK293T cells) (Homo sapiens (Human), UniProt Q86W56). Kind of experiment: PARG NanoBRET-based cellular target engagement assay. The settings on record: HEK293T cells transfected with PARG-NanoLuc, NanoBRET probe 0.89 μM, 2 hours; read-out: PARG TE IC50. The method in brief:
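HEK293T cells transiently expressing full-length human PARG with C-terminal NanoLuc, plated 24 h, then given compound (8-point series, 0.5% DMSO) for 15 min at room temperature. NanoBRET tracer added at 0.89 μM final, 2 h at 37° C.; BRET ratio (460/645 nm) fitted by 4-parameter logistic to give IC50.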
A general note: In BRET a luciferase serves as donor, and the signal depends on an acceptor being close.

Read-outs that look alike come from different tables or passages of the source. Some results are limits rather than exact numbers.

human PARG (PARG-NanoLuc fusion in HEK293T cells), sequence (Q86W56 whole entry, the tested form may be a part): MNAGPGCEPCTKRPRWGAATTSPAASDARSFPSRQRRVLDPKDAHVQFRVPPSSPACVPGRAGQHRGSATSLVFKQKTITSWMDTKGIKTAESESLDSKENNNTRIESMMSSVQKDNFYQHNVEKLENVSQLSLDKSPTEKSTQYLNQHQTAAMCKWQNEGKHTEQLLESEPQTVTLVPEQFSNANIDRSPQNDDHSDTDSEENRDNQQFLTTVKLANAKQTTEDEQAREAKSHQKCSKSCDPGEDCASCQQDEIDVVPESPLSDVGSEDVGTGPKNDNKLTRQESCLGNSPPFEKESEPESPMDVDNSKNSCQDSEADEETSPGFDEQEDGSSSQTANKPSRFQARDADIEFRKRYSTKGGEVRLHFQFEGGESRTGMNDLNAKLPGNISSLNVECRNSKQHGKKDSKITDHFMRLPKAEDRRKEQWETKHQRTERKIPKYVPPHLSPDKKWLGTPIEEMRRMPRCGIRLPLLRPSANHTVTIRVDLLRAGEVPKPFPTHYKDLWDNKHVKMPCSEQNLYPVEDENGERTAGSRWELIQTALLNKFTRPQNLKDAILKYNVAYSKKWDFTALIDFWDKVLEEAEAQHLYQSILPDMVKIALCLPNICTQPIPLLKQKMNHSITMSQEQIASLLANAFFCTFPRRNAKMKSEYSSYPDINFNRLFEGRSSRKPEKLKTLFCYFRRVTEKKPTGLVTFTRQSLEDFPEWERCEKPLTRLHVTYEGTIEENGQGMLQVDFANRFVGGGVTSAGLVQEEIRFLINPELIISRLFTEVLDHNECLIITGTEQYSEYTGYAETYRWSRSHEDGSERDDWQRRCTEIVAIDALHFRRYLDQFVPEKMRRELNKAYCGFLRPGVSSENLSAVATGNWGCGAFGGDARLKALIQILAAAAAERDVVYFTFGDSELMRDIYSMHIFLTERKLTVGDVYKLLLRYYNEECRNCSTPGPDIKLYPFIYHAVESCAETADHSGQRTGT

`CO/N=c1\[nH]c2ccc(S(=O)(=O)NC3(C)CC3)cc2c(=O)n1Cc1cnc(C)s1` [Example 1, 2-methoxyimino-N-(1-methylcyclopropyl)-3-[(2-methylthiazol-5-yl)methyl]-4-oxo-1H-quinazoline-6-sulfonamide]: the GI50 – broadly, the concentration giving 50% growth inhibition – in experiment [1] is 500 to 2000 nM; in experiment [2] (Homo sapiens, TOV112D), ≥ 9000 nM. The IC50 (in general, the concentration needed to halve the response being measured) in experiment [3] fell in the range of 30 to 99 nM.

Turning to `CO/N=c1\[nH]c2ccc(S(=O)(=O)NC3(C)COC3)cc2c(=O)n1Cc1cnn(C)c1` [Example 2, 2-methoxyimino-N-(3-methyloxetan-3-yl)-3-[(1-methylpyrazol-4-yl)methyl]-4-oxo-1H-quinazoline-6-sulfonamide], the concentration for 50% growth inhibition (GI50) in experiment [1] was 2000 to 9000 nM; in experiment [2] (Homo sapiens, TOV112D), ≥ 9000 nM. For the same compound, the IC50 in experiment [3] lay in the range of 100 to 1000 nM.

Take `Cc1nc(C)c(CO/N=c2\[nH]c3ccc(S(=O)(=O)NC4(C)CC4)cc3c(=O)n2Cc2cnn(C)c2)s1` [Example 3, 2-[(2,4-dimethylthiazol-5-yl)methoxyimino]-N-(1-methylcyclopropyl)-3-[(1-methylpyrazol-4-yl)methyl]-4-oxo-1H-quinazoline-6-sulfonamide]: the GI50 was 2000 to 9000 nM in experiment [1] and ≥ 9000 nM in experiment [2] (Homo sapiens, TOV112D). The IC50 in experiment [3] was in the range of 100 to 1000 nM.

Regarding `CO/N=c1\[nH]c2c(-c3ccc(C(=O)N(C)C)cc3)cc(S(=O)(=O)NC3(C)CC3)cc2c(=O)n1Cc1cnn(C)c1` [Example 5, 4-[2-methoxyimino-6-[(1-methylcyclopropyl)sulfamoyl]-3-[(1-methylpyrazol-4-yl)methyl]-4-oxo-1H-quinazolin-8-yl]-N,N-dimethyl-benzamide], the GI50 in experiment [1] is 500 to 2000 nM; in experiment [2] (Homo sapiens, TOV112D) it was ≥ 9000 nM. In addition, the IC50 in experiment [3] was < 30 nM.

Take `CO/N=c1\[nH]c2c(N3CCN[C@H](C)C3)cc(S(=O)(=O)NC3(C)CC3)cc2c(=O)n1Cc1cnn(C)c1` [Example 7, 2-methoxyimino-N-(1-methylcyclopropyl)-3-[(1-methylpyrazol-4-yl)methyl]-4-oxo-8-[(3R)-3-methylpiperazin-1-yl]-1H-quinazoline-6-sulfonamide]: the GI50 in experiment [1] is 500 to 2000 nM; in experiment [2] (Homo sapiens, TOV112D), ≥ 9000 nM. The IC50 in experiment [3] is < 30 nM.

`CON=c1[nH]c2c(N3CCN(C(=O)C4(C)CC4)[C@H](C)C3)cc(S(=O)(=O)NC3(C)CC3)cc2c(=O)n1Cc1cnn(C)c1` [Example 8, 2-methoxyimino-N-(1-methylcyclopropyl)-3-[(1-methylpyrazol-4-yl)methyl]-4-oxo-8-[(3R)-3-methyl-4-(1-methylcyclopropanecarbonyl)piperazin-1-yl]-1H-quinazoline-6-sulfonamide]: the values for the GI50 in experiment [1] and in experiment [2] were < 500 nM and 500 to 2000 nM, respectively. For the same compound, in experiment [3], the concentration for half-maximal inhibition (IC50) was < 30 nM.
